Source: US12016863B2, “Inhibitors of RSV replication and applications thereof” (priority 2018, dated 2024)

Legend:
[1] = Cytotoxicity in BEAS2B cells; type: cell-based; details: human, read-out: CC50 BEAS2B cells RSV
Text: (§1) For initial potency assessment, recombinant RSV reporter viruses can be employed to determine dose-response curves. These tests can be run routinely in an automated format, simultaneously assessing 8-fold serial compound dilutions in 3 independent replicates. Active concentrations can be calculated by four-parameter variable slope regression modeling. Individual prodrug candidates failing this assay can be tested for membrane permeability using a Caco-2 cell assay. Resistance-validated Caco-2 monolayers (TEER value >0.5×103Ω) will receive compound from the apical side, followed by LC-MS/MS-based quantification of substance intracellularly and in both chambers after 2-hour incubation. Atenolol, propranolol, and talinolol can be included as references and permeability coefficients (Papp) calculated. Candidates with poor Papp values can be reformulated synthetically. In parallel, all candidates can be subjected to rapid cytotoxicity screening, relying on PrestoBlue to monitor the redox potential of living cells after 48-hour exposure to a concentration range of compound. A validated automated cytotoxicity test pipeline has been established and can calculate CC50 values through variable slope regression modeling.

[2] = target: RSV N protein (N-P interaction) (Human respiratory syncytial virus A (strain A2), UniProt P03418); assay: FP assay: competition with 5-FAM-Ppep for purified RSV N; type: binding; details: for Ki: FP assay, purified RSV N vs 5-FAM-Ppep
RSV N protein (N-P interaction), sequence (P03418 whole entry): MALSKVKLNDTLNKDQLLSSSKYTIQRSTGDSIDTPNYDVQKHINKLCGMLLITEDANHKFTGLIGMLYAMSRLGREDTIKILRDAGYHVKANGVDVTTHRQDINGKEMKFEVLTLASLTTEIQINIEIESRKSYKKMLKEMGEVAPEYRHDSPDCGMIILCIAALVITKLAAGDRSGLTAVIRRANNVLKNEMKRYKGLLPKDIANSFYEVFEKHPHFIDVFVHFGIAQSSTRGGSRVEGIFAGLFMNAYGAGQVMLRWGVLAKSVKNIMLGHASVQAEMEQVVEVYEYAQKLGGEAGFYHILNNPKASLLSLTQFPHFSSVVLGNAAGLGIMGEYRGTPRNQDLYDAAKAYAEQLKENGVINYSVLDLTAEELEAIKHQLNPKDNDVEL

RSV [3] = assay: Cell-based anti-RSV potency in BEAS2B cells; details: human respiratory syncytial virus, BEAS-2B
Text: as §1

RSV [4] = assay: Cell-based anti-RSV potency in HEp2 cells; details: human respiratory syncytial virus, HEp-2
Text: as §1

[5] = Cytotoxicity in HEp2 cells; type: cell-based; details: human, read-out: CC50 HEp2 cells RSV
Text: as §1

RSV N-P interaction = RSV N-P interaction (Human respiratory syncytial virus A (strain A2), UniProt P03418); assay: Biolayer interferometry (BLI) competition assay, purified N to P protein biosensors; type: binding; details: PBS+BSA 0.01% +Tween20 0.002%
RSV N-P interaction, sequence (P03418 whole entry): as above
Text: Dissociation rates of purified N to P protein biosensors determined in presence of GRP-171194 under stringent conditions (PBS+BSA 0.01% +Tween20 0.002%).

Row | Compound | CC50 at 48 h [1] [µM] | Ki [2] [µM] | IC50 (RSV [3]) [µM] | IC50 (RSV [4]) [µM] | CC50 at 48 h [5] [µM] | inhibition of purified N binding to P protein biosensors (BLI) (RSV N-P interaction) | competition with 5-FAM-Ppep for N in FP assay ([2]; compound 0.31-40 μM, 5-FAM-Ppep 1 μM)
1 | CN(C)C(=O)C1=CC(c2ccccc2Cl)n2nnnc2N1 (centres unmarked) [EJ3054] | 131 | > 300 | 100 |  |  |  | 
2 | Cc1c(Cl)c(=O)oc2cc(OC(=O)C(C)C)ccc12 [ZD-3-067] | 251 | 1.6 | 136 | 6.5 | 7 |  | 
3 | CCOC(=O)C1=CC(c2ccccc2Cl)n2nnnc2N1 (centres unmarked) [EJ3062] | > 300 | > 300 | > 300 | > 300 | > 300 |  | 
4 | COc1ccc2c(C)c(Cl)c(=O)oc2c1 [EJ3061] |  | > 300 |  |  |  |  | 
5 | CC(C)OC(=O)C1=CC(c2ccccc2Cl)n2nnnc2N1 (centres unmarked) [ZD-3-069] | > 300 | > 300 | > 300 | > 300 | > 300 |  | 
6 | CNC(=O)C1=CC(c2ccccc2Cl)n2nnnc2N1 (centres unmarked) [EJ3057] | > 100 | > 300 | 112 |  |  |  | 
7 | CC(=O)Oc1ccc2c(C)cc(=O)oc2c1 [EJ21257] | 113 | 2.9 | > 300 | > 300 | > 100 |  | 
8 | COC(=O)C1=CC(c2ccccc2Cl)n2nnnc2N1 (centres unmarked) [EJ3051] | 102 | > 300 | 101 |  |  |  | 
9 | Cc1c(Cl)c(=O)oc2cc(OC(C)C)ccc12 [EJ3063] | > 300 | > 300 | 14.6 | 1.9 | 1.2 |  | 
10 | O=C(O)C1=CC(c2ccccc2Cl)n2nnnc2N1 (centres unmarked) [GRP-171194, 7-(2-chlorophenyl)-4,7-dihydrotetrazolo[1,5-a]pyrimidine-5-carboxylic acid] | > 300 | 2.4 | > 300 | > 300 | > 300 | dose-dependent inhibition | dose-dependent competition
11 | Cc1c(Cl)c(=O)oc2cc(O)ccc12 [AX801] | 116 | > 300 | 65 |  |  |  | 
12 | O=C(O)C1=CC(c2ccccc2)n2nnnc2N1 (centres unmarked) [RJW-3-024] | > 300 | 10 | > 300 |  |  |  | 
13 | O=C(OCC(F)(F)F)C1=CC(c2ccccc2Cl)n2nnnc2N1 (centres unmarked) [ZD-3-064] | > 300 | > 300 | > 300 |  |  |  | 
14 | COC(=O)Nc1ccc2c(C)c(Cl)c(=O)oc2c1 [EJ3066] | > 100 | > 300 | 130 | > 100 | > 100 |  | 
15 | CC(=O)Oc1ccc2c(C)c(Cl)c(=O)oc2c1 [GRP-268365] |  | 2.2 |  |  |  |  | 
16 | CC(C)COC(=O)C1=CC(c2ccccc2Cl)n2nnnc2N1 (centres unmarked) [EJ3043] | > 300 | > 300 | > 300 | > 300 | > 300 |  | 
